According to US8142764B2, “Synthetic biofilm-inhibiting peptides” (priority 2008, dated 2012):
“Also recorded” adds a separate entry of the source. Where no end group is shown, it is not given here.

Key:
[1] = test system: proteolytic activity of P. gingivalis; type: cell-based, Porphyromonas gingivalis; details: intact cells pre-treated with inhibitor
Description: Inhibition of protease activity. The proteolytic activity of P. gingivalis was inhibited using a bacterial protease inhibitor cocktail (Sigma, St. Louis, Mo.) containing the following inhibitors: 4-(2-Aminoethyl)benzenesulfonyl fluoride hydrochloride (AEBSF), N-(trans-epoxysuccinyl)-L-leucine 4 guanidinobutylamide (E-64), sodium ethylenediaminetetra-acetate (EDTA), bestatin and pepstatin A. The inhibitor cocktail was suspended in dimethylsulfoxide (DMSO) (Sigma, St. Louis, Mo.) at the concentration recommended by the manufacturer.

[2] = test system: P. gingivalis/S. gordonii biofilm; test: Inhibition of P. gingivalis adherence and biofilm formation on S. gordonii (open flow cell, confocal microcolony count); type: cell-based, Porphyromonas gingivalis; details: for inhibition of biofilm formation: peptide 3.38 μM
Method: P. gingivalis adherence and biofilm formation. The adherence of intact P. gingivalis to S. gordonii cells and the subsequent formation of biofilms was carried out using an open flow system essentially as previously described by Amorin Daep et al. Infect Immun 74:5756-62 (2006) and Lamont et al. Microbiology 148:1627-36 (2002). The flow reactor comprised a Manostat Carter 4/8 cassette peristaltic pump (Fisher Scientific, Suwanee, Ga.) using 0.89 millimeter platinum-cured silicone tubing (Fisher Scientific, Suwanee, Ga.) and a BST FC 71 flow cell (Biosurface Technologies, Corp, Bozeman, Mont.). A single surface of a 15×40 mm cover glass (Fisher Scientific, Suwanee, Ga.) was coated with 0.22 μm filter sterilized saliva and incubated at 37° C. for 30 minutes. The saliva coated coverglass was then washed with sterile 1×PBS at a flow rate of 6 ml per hour for 30 minutes to remove unbound salivary constituents.
S. gordonii DL-1 cells were harvested by centrifugation at 4000 rpm at 4° C. for 15 minutes and suspended in 25 ml of sterile 1×PBS. S. gordonii cells were labeled with 20 μl of hexidium iodide (1.6 mg/ml, Molecular Probes, Eugene, Oreg.) at 25° C. for 30 minutes in the dark and washed with PBS. Adherence of streptococci to the saliva coated cover glass was carried out by delivering S. gordonii cells to the flow chamber at a flow rate of 6 ml per hour for approximately 2 hours. Following inoculation with S. gordonii, the flow cell was washed with sterile 1×PBS for 30 minutes at 6 ml per hour to remove non-adherent bacteria from the cover glass.
P. gingivalis ATCC 33277 cells were harvested by centrifugation at 4000 rpm at 4° C. for 45 minutes, suspended in 25 ml of sterile 1×PBS, and introduced into the flow cell at a flow rate of 6 ml per hour for 2 hours at 25° C. to allow P. gingivalis to adhere and accumulate on the streptococcal substrate. Flow cells were subsequently washed with sterile 1×PBS to remove non-adherent P. gingivalis cells. To visualize adherent P. gingivalis, rabbit anti-P. gingivalis 33277 polyclonal antibody diluted 3:5000 in 5 ml of sterile 1×PBS was flowed into the cell at a rate of 6 ml per hour. The flow cell was then washed with sterile 1×PBS for 1 hour, reacted with anti-rabbit IgG fluorescein isothiocyanate (FITC) conjugate (Sigma, St. Louis, Mo.) in sterile 1×PBS (1:5000) for 1 hour at 6 ml per hour, and received a final wash with sterile 1×PBS as above. Under these conditions, the streptococci bound to the saliva coated coverglass as a non-confluent layer comprising single cells and small aggregates. P. gingivalis subsequently adhered to and formed distinct microcolonies on the immobilized streptococci. The microcolonies were visualized and quantified by confocal microscopy as described below.
Confocal microscopy and analysis of P. gingivalis biofilms. P. gingivalis-S. gordonii biofilms were visualized using an Olympus FluoView 500 confocal laser scanning microscope (Olympus, Pittsburgh, Pa.) under 600× magnification using an Argon laser for visualization of FITC labeling and the HeNe-G laser to visualize hexidium iodide labeled streptococci. The number and depth of FITC-labeled P. gingivalis microcolonies was determined from 30 to 60 randomly chosen frames using the FluoView software package provided by Olympus. Microcolony depth was determined by performing Z-plane scans from 0 μm to 30 μm above the coverglass surface. P. gingivalis microcolonies that formed on S. gordonii in the absence of peptide inhibitor ranged from 7 to 16 μm in depth under the experimental conditions used.
Inhibition of P. gingivalis adherence and bioflim formation. […] The P. gingivalis-peptide suspension was then introduced into the flow cell for 2 hours at a flow rate of 6 ml per hour as described above and P. gingivalis microcolonies were analyzed by confocal microscopy. Data was analyzed using GraphPad InStat3 (GraphPad Software Co.).

[3] = test system: proteases produced by P. gingivalis; test: Proteolytic degradation of BAR by P. gingivalis cells, culture supernatant or extracts (tricine gel, densitometry); type: in vitro ADME, Porphyromonas gingivalis
Method: Proteolytic degradation of BAR by P. gingivalis. One milliliter of mid-exponential phase cultures of P. gingivalis SMF, P. gingivalis KDP128, P. gingivalis KDP129, or P. gingivalis E8 was centrifuged at 8000 rpm for 5 minutes at 4° C. The bacterial pellet was washed 3 times with 1 ml of sterile 1×PBS (100 mM sodium phosphate, pH 7.4, 150 mM NaCl). […] For some experiments, digital images of the stained gels were obtained using Epson Stylus CX3810 flatbed scanner (Espson America, Inc., Long Beach, Calif.) and analyzed by densitometry using ImageJ software (found on the world-wide-web at rsbweb.nih.gov/ij/).

[4] = test system: P. gingivalis/S. gordonii biofilm; details: 0.3 μM
Method: P. gingivalis biofilm formation with S. gordonii. The formation of dual species P. gingivalis/S. gordonii biofilms was carried out essentially as previously described by Lamont et al (2002. Microbiology 148:1627-36.) and Daep et al. (Immun 74:5756-62 (2006); Infect Immun 76:3273-80 (2008)). The bacterial biofilms were cultured using a Manostat Carter 4/8 cassette peristaltic pump (Fisher Scientific, Suwanee, Ga.) with 0.89 millimeter platinum-cured silicone tubing (Fisher Scientific, Suwanee, Ga.) and BST FC 71 flow cells (Biosurface Technologies, Corp, Bozeman, Mont.). […]
P. gingivalis cells were harvested by centrifugation at 4000 rpm at 4° C. for 45 minutes, suspended in 20 ml of sterile 1×PBS, and introduced into the flow cell at a flow rate of 6 ml per hour for 2 hours to allow the bacteria to adhere and accumulate on the streptococcal substrate. […] P. gingivalis microcolonies bound to immobilized streptococci were quantified by confocal microscopy as described below.
The bacteria were incubated with 0 and 0.845 μM peptide at ambient temperature for 30 minutes and introduced into the flow cell containing an existing streptococcal substrate for 2 hours at a flow rate of 6 ml per hour. Biofilm formation was analyzed by confocal microscopy as described below. Data was analyzed using GraphPad InStat3 software (GraphPad Software Co.) using a non-parametric analysis of variance (ANOVA). […]

Mfa1 = Mfa1 (Porphyromonas gingivalis, UniProt B2RHG1); details: read-out: dissociation constant of the BAR-Mfa1 interaction; previously calculated; cited from earlier work
[5] = Circular dichroism (CD) spectroscopy, K2D secondary structure estimate; type: physicochemical; details: 1.4 mM peptide in phosphate buffer
Method: Circular dichroism (CD) spectroscopy. CD experiments were carried out at 25° C. using Jasco J-810 spectropolarimeter (Jasco, Easton, Md.). A 40 μl sample of peptide at a concentration of 1.4 mM in filter sterilized 0.1 M phosphate buffer (pH=7.2) was analyzed in a 0.01 cm quartz cuvette (Starna Cells, Inc., Atascadero, Calif.) using the following parameters: sensitivity=100 mdeg, start wavelength=340 nm, end wavelength=180 nm, continuous scanning mode at 200 nm/minute, response=1 second, and bandwidth=1 nm. Nitrogen was flushed into the system at a rate of […] during each experiment. A total of 10 scans were accumulated and averaged and the appropriate blanks were subtracted from the spectra. The resulting spectra were expressed in molar ellipticity. Normalized CD data were analyzed using K2D software (on the world-wide web at embl-heidelberg.de/˜andrade/k2d.html)) to estimate α-helical, β-sheet, and random coil content.

Sequence of Mfa1 (B2RHG1 50-563): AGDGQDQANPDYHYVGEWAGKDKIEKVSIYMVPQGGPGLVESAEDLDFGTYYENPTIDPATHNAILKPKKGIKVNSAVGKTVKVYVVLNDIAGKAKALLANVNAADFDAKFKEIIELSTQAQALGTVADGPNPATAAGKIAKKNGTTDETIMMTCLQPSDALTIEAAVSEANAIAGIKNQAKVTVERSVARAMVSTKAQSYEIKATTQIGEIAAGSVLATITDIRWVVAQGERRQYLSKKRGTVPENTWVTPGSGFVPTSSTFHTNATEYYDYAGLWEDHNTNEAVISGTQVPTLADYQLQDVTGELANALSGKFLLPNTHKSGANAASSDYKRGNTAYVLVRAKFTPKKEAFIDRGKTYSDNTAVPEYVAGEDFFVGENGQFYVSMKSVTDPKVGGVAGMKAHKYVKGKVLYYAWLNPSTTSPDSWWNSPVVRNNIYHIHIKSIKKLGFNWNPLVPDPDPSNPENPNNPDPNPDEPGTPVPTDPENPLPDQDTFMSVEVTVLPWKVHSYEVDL

Compound: CC(C)C[C@H](NC(=O)[C@H]1O[C@@H]1C(=O)O)C(=O)NCCCCN=C(N)N (relative stereo) [E-64, N-(trans-epoxysuccinyl)-L-leucine 4 guanidinobutylamide]
- concentrations that prevent cleavage of BAR by P. gingivalis (in words) [1]: mM range

Compound: Cl.NCCc1ccc(S(=O)(=O)F)cc1 [AEBSF, 4-(2-Aminoethyl)benzenesulfonyl fluoride hydrochloride]
- concentrations that prevent cleavage of BAR by P. gingivalis (in words) [1]: mM range

Compound: O=C([O-])CN(CCN(CC(=O)[O-])CC(=O)[O-])CC(=O)[O-].[Na+].[Na+].[Na+].[Na+] [EDTA, sodium ethylenediaminetetra-acetate]
- concentrations that prevent cleavage of BAR by P. gingivalis (in words) [1]: mM range

Compound: CC(C)C[C@H](NC(=O)[C@@H](O)[C@H](N)Cc1ccccc1)C(=O)O [bestatin]
- concentrations that prevent cleavage of BAR by P. gingivalis (in words) [1]: mM range

Compound: LEAAPKKVPGLLKKANITVKGAFQLFS [BAR-X]
- inhibition of biofilm formation [2]: ~15%

Compound: LEAAPKKVQDLLKKANITVKGAFQLFS [BAR]
- inhibition of P. gingivalis microcolony formation ([2]; peptide 0.34 μM): 3%
- inhibition of P. gingivalis microcolony formation ([2]; peptide 0.85 μM): 7%
- inhibition rate of P. gingivalis/S. gordonii biofilm formation ([2]; peptide 1.7 μM): 80%
- inhibition of biofilm formation [2]: ~75%
- degradation by P. gingivalis 33277 (in words) ([3]; 5 μg BAR, wild type cells): immediate degradation
- degradation by P. gingivalis culture supernatant (in words) ([3]; 5 μg peptide, 37° C., 0 to 60 minutes): more slowly degraded; also recorded: time dependent degradation
- proteolytic cleavage by P. gingivalis culture extracts (in words) ([3]; 1 hour incubation, 10-20% Tris-Tricine gel): slowly degraded
- relative density (R.D.) of remaining BAR peptide ([3]; E8 whole cells, within 5 minutes (first value of 'R.D.=32.5 vs. 21.6')): 32.5
- relative density (R.D.) of remaining BAR peptide ([3]; P. gingivalis SMF1 with rMfa1, T=5 minutes, loading control R.D.=61.07): 47.3
- relative density (R.D.) of remaining BAR peptide ([3]; P. gingivalis SMF1 with rMfa1, T=30 minutes, loading control R.D.=61.07): 8.2
- relative density (R.D.) of remaining BAR peptide ([3]; P. gingivalis SMF1 without rMfa1, T=5 minutes, loading control R.D.=61.07): −5.75
- relative density (R.D.) of remaining BAR peptide ([3]; P. gingivalis SMF1 without rMfa1, T=30 minutes, loading control R.D.=61.07): −20.32
- relative density (R.D.) of remaining BAR peptide ([3]; gingipain deficient P. gingivalis KDP128, T=5 minutes, loading control R.D.=115.85): 96.23
- relative density (R.D.) of remaining BAR peptide ([3]; gingipain deficient P. gingivalis KDP128, T=10 minutes, loading control R.D.=115.85): 115.85
- degradation by P. gingivalis E8 (lacks Arg-X gingipains), in words ([3]; intact cells): rapidly degraded; also recorded: immediate degradation
- degradation by P. gingivalis KDP128 (lacks Lys-X and Arg-X gingipains), in words ([3]; intact cells): Little degradation was observed after incubation for 10 minutes; also recorded: attenuated proteolytic activity against the peptide
- degradation by P. gingivalis KDP129 (lacks Lys-X gingipains), in words ([3]; intact cells): attenuated degradation; also recorded: Little degradation was observed
- degradation by intact P. gingivalis cells in the presence of purified Mfa1 (in words) ([3]; pre-incubation with Mfa1): little degradation occurred after 5 minutes; also recorded: protection from proteolytic degradation
- relative density (R.D.) of remaining BAR peptide, comparator ([3]; second value of 'R.D.=32.5 vs. 21.6', apparently wild type 33277, 5 minutes): 21.6
- inhibitory activity on biofilm formation [4]: ~50%
- Kd (Mfa1): ~900 nM

Compound: LEAAPKKVQDLLKKARITIKGAFQLFS [BAR-II]
- biofilm inhibitory activity (in words) [2]: more potent inhibitor of P. gingivalis adherence and biofilm development than BAR
- fold difference in I50 / potency relative to BAR ([2]; I50 0.52 μM versus 1.25 μM): approximately 2.5 fold
- IC50 ([2]; P. gingivalis pre-incubated with peptide, streptococcal substrate, read-out: I50 for inhibition of P. gingivalis adherence and biofilm formation): 520 nM
- inhibition of P. gingivalis microcolony formation ([2]; peptide 0.34 μM): 25%
- inhibition of P. gingivalis microcolony formation ([2]; peptide 0.85 μM): 82%
- α-helix content [5]: 28%

Compound: LQAAPKKVQDLLKKANITVKGAFQLFS [BAR-XIV]
- inhibitory activity compared to BAR (in words) ([2]; peptide 1.7 μM): significant decrease in inhibitory activity
- restoration of inhibitory activity (in words) ([2]; peptide 17 μM): did not show partial or full restoration
